From ChEMBL document CHEMBL2429780, “Synthesis, antimicrobial and cytotoxic activity of 2-azetidinone derivatives of pyridyl benzimidazoles” (Med Chem Res, 2013)
Converted amounts (≈) assume the structure as drawn.

Legend:
Pseudomonas aeruginosa = assay: Antibacterial activity against Pseudomonas aeruginosa MTCC 1688 assessed as growth inhibition after 24 hrs by broth dilution assay; assay type: functional; conditions: MTCC 1688, 24 h
Streptococcus pyogenes = assay: Antibacterial activity against Streptococcus pyogenes MTCC 442 assessed as growth inhibition after 24 hrs by broth dilution assay; assay type: functional; conditions: MTCC 442, 24 h
Staphylococcus aureus = assay: Antibacterial activity against Staphylococcus aureus MTCC 96 assessed as growth inhibition after 24 hrs by broth dilution assay; assay type: functional; conditions: MTCC 96, 24 h
HeLa = assay: Cytotoxicity against human HeLa cells assessed as growth inhibition after 24 to 72 hrs by MTT assay; assay type: cell-based
Aspergillus clavatus = assay: Antifungal activity against Aspergillus clavatus assessed as growth inhibition after 48 hrs by broth dilution assay; assay type: functional
Aspergillus niger = assay: Antifungal activity against Aspergillus niger assessed as growth inhibition after 48 hrs by broth dilution assay; assay type: functional
Candida albicans = assay: Antifungal activity against Candida albicans assessed as growth inhibition after 48 hrs by broth dilution assay; assay type: functional
Escherichia coli = assay: Antibacterial activity against Escherichia coli MTCC 443 assessed as growth inhibition after 24 hrs by broth dilution assay; assay type: functional; conditions: MTCC 443, 24 h

Compound	MIC (Pseudomonas aeruginosa) [µg/mL]	MIC (Streptococcus pyogenes) [µg/mL]	MIC (Staphylococcus aureus) [µg/mL]	IC50 (HeLa) [µM]	MIC (Aspergillus clavatus) [µg/mL]	MIC (Aspergillus niger) [µg/mL]	MIC (Candida albicans) [µg/mL]	MIC (Escherichia coli) [µg/mL]
N#Cc1c(-c2ccc(Cl)cc2)cc(-c2nc3ccccc3[nH]2)nc1N	≥ 1000	≥ 1000	≥ 1000	–	–	–	–	–
N#Cc1c(-c2ccc(O)cc2)cc(-c2nc3ccccc3[nH]2)nc1N1C(=O)C(Cl)C1c1ccccc1 (stereo not given)	250 (≈ 508 µM)	250 (≈ 508 µM)	250 (≈ 508 µM)	67.4	250 (≈ 508 µM)	500 (≈ 1020 µM)	500 (≈ 1020 µM)	250 (≈ 508 µM)
Cc1ccccc1-c1cc(-c2nc3ccccc3[nH]2)nc(N2C(=O)C(Cl)C2c2ccccc2)c1C#N (stereo not given)	1000 (≈ 2040 µM)	500 (≈ 1020 µM)	500 (≈ 1020 µM)	66	500 (≈ 1020 µM)	1000 (≈ 2040 µM)	500 (≈ 1020 µM)	250 (≈ 510 µM)
COc1cccc(-c2cc(-c3nc4ccccc4[nH]3)nc(N3C(=O)C(Cl)C3c3ccccc3)c2C#N)c1 (stereo not given)	500 (≈ 988 µM)	500 (≈ 988 µM)	500 (≈ 988 µM)	64	250 (≈ 494 µM)	500 (≈ 988 µM)	500 (≈ 988 µM)	250 (≈ 494 µM)
O=C(N[C@H](CO)[C@H](O)c1ccc([N+](=O)[O-])cc1)C(Cl)Cl [CHLORAMPHENICOL]	50 (≈ 155 µM)	50 (≈ 155 µM)	50 (≈ 155 µM)	–	–	–	–	50 (≈ 155 µM)
N#Cc1c(-c2ccccc2)cc(-c2nc3ccccc3[nH]2)nc1N1C(=O)C(Cl)C1c1ccccc1 (stereo not given)	500 (≈ 1050 µM)	500 (≈ 1050 µM)	250 (≈ 525 µM)	81	500 (≈ 1050 µM)	250 (≈ 525 µM)	500 (≈ 1050 µM)	250 (≈ 525 µM)
N#Cc1c(-c2ccc(Cl)cc2)cc(-c2nc3ccccc3[nH]2)nc1N1C(=O)C(Cl)C1c1ccccc1 (stereo not given)	12.5 (≈ 24.5 µM)	25 (≈ 49 µM)	12.5 (≈ 24.5 µM)	> 100	100 (≈ 196 µM)	100 (≈ 196 µM)	100 (≈ 196 µM)	12.5 (≈ 24.5 µM)
N#Cc1c(-c2ccc([N+](=O)[O-])cc2)cc(-c2nc3ccccc3[nH]2)nc1/N=C/c1ccccc1	1000 (≈ 2250 µM)	1000 (≈ 2250 µM)	–	–	–	–	–	–
COc1ccc(-c2cc(-c3nc4ccccc4[nH]3)nc(N3C(=O)C(Cl)C3c3ccccc3)c2C#N)cc1 (stereo not given)	250 (≈ 494 µM)	250 (≈ 494 µM)	500 (≈ 988 µM)	58.2	500 (≈ 988 µM)	500 (≈ 988 µM)	1000 (≈ 1980 µM)	100 (≈ 198 µM)
N#Cc1c(-c2ccccc2Cl)cc(-c2nc3ccccc3[nH]2)nc1N1C(=O)C(Cl)C1c1ccccc1 (stereo not given)	250 (≈ 490 µM)	100 (≈ 196 µM)	100 (≈ 196 µM)	> 100	100 (≈ 196 µM)	100 (≈ 196 µM)	100 (≈ 196 µM)	100 (≈ 196 µM)
Cc1ccc(-c2cc(-c3nc4ccccc4[nH]3)nc(N3C(=O)C(Cl)C3c3ccccc3)c2C#N)cc1 (stereo not given)	500 (≈ 1020 µM)	500 (≈ 1020 µM)	250 (≈ 510 µM)	74.5	500 (≈ 1020 µM)	500 (≈ 1020 µM)	500 (≈ 1020 µM)	100 (≈ 204 µM)
N#Cc1c(-c2ccccc2Cl)cc(-c2nc3ccccc3[nH]2)nc1/N=C/c1ccccc1	1000 (≈ 2300 µM)	1000 (≈ 2300 µM)	–	–	–	–	–	–
N#Cc1c(-c2cccc([N+](=O)[O-])c2)cc(-c2nc3ccccc3[nH]2)nc1N	≥ 1000	≥ 1000	≥ 1000	–	≥ 1000	≥ 1000	≥ 1000	–
CC(=O)N1CCN(c2ccc(OCC3COC(Cn4ccnc4)(c4ccc(Cl)cc4Cl)O3)cc2)CC1 (stereo not given) [KETOCONAZOLE]	–	–	–	–	50 (≈ 94.1 µM)	50 (≈ 94.1 µM)	50 (≈ 94.1 µM)	–
N#Cc1c(-c2ccc([N+](=O)[O-])cc2)cc(-c2nc3ccccc3[nH]2)nc1N	≥ 1000	≥ 1000	≥ 1000	–	–	–	–	–
N#Cc1c(-c2ccc(Cl)cc2)cc(-c2nc3ccccc3[nH]2)nc1/N=C/c1ccccc1	1000 (≈ 2300 µM)	1000 (≈ 2300 µM)	–	–	–	–	–	–
N#Cc1c(-c2cccc(Cl)c2)cc(-c2nc3ccccc3[nH]2)nc1N	≥ 1000	≥ 1000	≥ 1000	–	≥ 1000	≥ 1000	≥ 1000	–
